Target: SUV420H1 enzyme (Homo sapiens, UniProt Q4FZB7)
Test: TR-FRET SAH SUV420H1 enzyme inhibition assay
Type: biochemical
Details: Histone Peptide H4(8-30)me1 and SAM, overnight at room temp, TR-FRET detection of SAH, read-out: TR-FRET SAH_SUV420H1 IC50
Procedure, shortened: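 SUV420H1 (90 nM) preincubated 30 min with compound (3-fold dilutions, 50 to 0.00075 μM), then H4(8-30)me1 peptide 5 nM and SAM 4 nM added, overnight at room temp. SAH product detected by TR-FRET with Tb anti-SAH antibody and Oregon Green-SAH in RIPA buffer, 4 h; IC50 from Hill fit, asymptotes fixed 0-100%.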

SUV420H1 enzyme, sequence (Q4FZB7 whole entry): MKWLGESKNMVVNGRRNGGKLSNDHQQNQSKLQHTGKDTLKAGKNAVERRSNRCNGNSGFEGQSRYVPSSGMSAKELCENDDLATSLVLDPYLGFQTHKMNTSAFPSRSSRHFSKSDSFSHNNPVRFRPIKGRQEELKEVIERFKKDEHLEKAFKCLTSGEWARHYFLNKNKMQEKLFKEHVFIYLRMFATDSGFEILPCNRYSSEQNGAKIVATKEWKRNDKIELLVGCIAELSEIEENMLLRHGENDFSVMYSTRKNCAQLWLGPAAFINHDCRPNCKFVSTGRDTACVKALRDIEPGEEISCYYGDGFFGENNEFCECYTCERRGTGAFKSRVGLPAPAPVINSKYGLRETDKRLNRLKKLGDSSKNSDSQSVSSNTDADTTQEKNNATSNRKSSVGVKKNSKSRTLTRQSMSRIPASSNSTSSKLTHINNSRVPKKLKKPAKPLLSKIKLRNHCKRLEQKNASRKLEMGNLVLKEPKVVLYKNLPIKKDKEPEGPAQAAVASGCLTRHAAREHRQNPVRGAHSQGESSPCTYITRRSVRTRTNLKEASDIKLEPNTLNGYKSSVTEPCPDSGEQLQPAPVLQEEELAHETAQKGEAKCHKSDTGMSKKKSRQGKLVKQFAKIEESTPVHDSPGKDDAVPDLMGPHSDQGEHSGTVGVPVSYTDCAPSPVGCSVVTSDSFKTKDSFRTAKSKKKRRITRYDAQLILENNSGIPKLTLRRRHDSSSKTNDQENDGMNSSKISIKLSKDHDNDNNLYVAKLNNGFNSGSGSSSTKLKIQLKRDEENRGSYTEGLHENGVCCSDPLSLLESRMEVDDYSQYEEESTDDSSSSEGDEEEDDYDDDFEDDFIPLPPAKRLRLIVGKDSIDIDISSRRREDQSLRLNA

IC50 [µM] | SMILES
9.48 | Nc1ncnc2c1ncn2Cc1cc(Cl)cc2cc(CNC(=O)c3ccn[nH]3)[nH]c12 [Example 142, N-({7-[(6-amino-9H-purin-9-yl)methyl]-5-chloro-1H-indol-2-yl}methyl)-1H-pyrazole-5-carboxamide]
24 | Nc1ncnc2c1ncn2Cc1cc(Cl)cc2cc(CNC(=O)c3cn[nH]c3)[nH]c12 [Example 143, N-({7-[(6-amino-9H-purin-9-yl)methyl]-5-chloro-1H-indol-2-yl}methyl)-1H-pyrazole-4-carboxamide]
4.6 | Nc1ncnc2c1ncn2Cc1cc(Cl)cc2cc(CNC(=O)c3cccs3)[nH]c12 [Example 144, N-({7-[(6-amino-9H-purin-9-yl)methyl]-5-chloro-1H-indol-2-yl}methyl)thiophene-2-carboxamide]
2.4 | Nc1ncnc2c1ncn2Cc1cc(Cl)cc2cc(CNC(=O)c3ccsc3)[nH]c12 [Example 145, N-({7-[(6-amino-9H-purin-9-yl)methyl]-5-chloro-1H-indol-2-yl}methyl)thiophene-3-carboxamide]
14.2 | Nc1ncnc2c1ncn2Cc1cc(Cl)cc2cc(CNC(=O)c3ccc[nH]3)[nH]c12 [Example 146, N-({7-[(6-amino-9H-purin-9-yl)methyl]-5-chloro-1H-indol-2-yl}methyl)-1H-pyrrole-2-carboxamide]
5.79 | Cc1scnc1C(=O)NCc1cc2cc(Cl)cc(Cn3cnc4c(N)ncnc43)c2[nH]1 [Example 147, N-({7-[(6-amino-9H-purin-9-yl)methyl]-5-chloro-1H-indol-2-yl}methyl)-5-methyl-1,3-thiazole-4-carboxamide]
1.03 | Cc1ncsc1C(=O)NCc1cc2cc(Cl)cc(Cn3cnc4c(N)ncnc43)c2[nH]1 [Example 148, N-({7-[(6-amino-9H-purin-9-yl)methyl]-5-chloro-1H-indol-2-yl}methyl)-4-methyl-1,3-thiazole-5-carboxamide]
0.382 | Cc1nocc1C(=O)NCc1cc2cc(Cl)cc(Cn3cnc4c(N)ncnc43)c2[nH]1 [Example 150, N-({7-[(6-amino-9H-purin-9-yl)methyl]-5-chloro-1H-indol-2-yl}methyl)-3-methyl-1,2-oxazole-4-carboxamide]
6.75 | Cn1ccc(C(=O)NCc2cc3cc(Cl)cc(Cn4cnc5c(N)ncnc54)c3[nH]2)n1 [Example 151, N-({7-[(6-amino-9H-purin-9-yl)methyl]-5-chloro-1H-indol-2-yl}methyl)-1-methyl-1H-pyrazole-3-carboxamide]
1.08 | Cn1nccc1C(=O)NCc1cc2cc(Cl)cc(Cn3cnc4c(N)ncnc43)c2[nH]1 [Example 152, N-({7-[(6-amino-9H-purin-9-yl)methyl]-5-chloro-1H-indol-2-yl}methyl)-1-methyl-1H-pyrazole-5-carboxamide]
4.77 | Cn1ccnc1C(=O)NCc1cc2cc(Cl)cc(Cn3cnc4c(N)ncnc43)c2[nH]1 [Example 154, N-({7-[(6-amino-9H-purin-9-yl)methyl]-5-chloro-1H-indol-2-yl}methyl)-1-methyl-1H-imidazole-2-carboxamide]
7.92 | Cc1sccc1C(=O)NCc1cc2cc(Cl)cc(Cn3cnc4c(N)ncnc43)c2[nH]1 [Example 156, N-({7-[(6-amino-9H-purin-9-yl)methyl]-5-chloro-1H-indol-2-yl}methyl)-2-methylthiophene-3-carboxamide]
2.06 | Cc1ccsc1C(=O)NCc1cc2cc(Cl)cc(Cn3cnc4c(N)ncnc43)c2[nH]1 [Example 157, N-({7-[(6-amino-9H-purin-9-yl)methyl]-5-chloro-1H-indol-2-yl}methyl)-3-methylthiophene-2-carboxamide]
4.75 | COc1cscc1C(=O)NCc1cc2cc(Cl)cc(Cn3cnc4c(N)ncnc43)c2[nH]1 [Example 158, N-({7-[(6-amino-9H-purin-9-yl)methyl]-5-chloro-1H-indol-2-yl}methyl)-4-methoxythiophene-3-carboxamide]
> 50 | COc1ccsc1C(=O)NCc1cc2cc(Cl)cc(Cn3cnc4c(N)ncnc43)c2[nH]1 [Example 159, N-({7-[(6-amino-9H-purin-9-yl)methyl]-5-chloro-1H-indol-2-yl}methyl)-3-methoxythiophene-2-carboxamide]
16.8 | Cn1cccc1C(=O)NCc1cc2cc(Cl)cc(Cn3cnc4c(N)ncnc43)c2[nH]1 [Example 160, N-({7-[(6-amino-9H-purin-9-yl)methyl]-5-chloro-1H-indol-2-yl}methyl)-1-methyl-1H-pyrrole-2-carboxamide]
0.856 | Cc1nc(C)c(C(=O)NCc2cc3cc(Cl)cc(Cn4cnc5c(N)ncnc54)c3[nH]2)s1 [Example 161, N-({7-[(6-amino-9H-purin-9-yl)methyl]-5-chloro-1H-indol-2-yl}methyl)-2,4-dimethyl-1,3-thiazole-5-carboxamide]

Continued, molecule first:

SMILES | IC50 [µM]
Nc1ncnc2c1ncn2Cc1cc(Cl)cc2cc(CNC(=O)c3cnoc3)[nH]c12 [Example 141, N-({7-[(6-amino-9H-purin-9-yl)methyl]-5-chloro-1H-indol-2-yl}methyl)-1,2-oxazole-4-carboxamide] | 0.783
Cc1oncc1C(=O)NCc1cc2cc(Cl)cc(Cn3cnc4c(N)ncnc43)c2[nH]1 [Example 149, N-({7-[(6-amino-9H-purin-9-yl)methyl]-5-chloro-1H-indol-2-yl}methyl)-5-methyl-1,2-oxazole-4-carboxamide] | 2.04
Cn1cncc1C(=O)NCc1cc2cc(Cl)cc(Cn3cnc4c(N)ncnc43)c2[nH]1 [Example 153, N-({7-[(6-amino-9H-purin-9-yl)methyl]-5-chloro-1H-indol-2-yl}methyl)-1-methyl-1H-imidazole-5-carboxamide] | 4.4
Cc1noc(N)c1C(=O)NCc1cc2cc(Cl)cc(Cn3cnc4c(N)ncnc43)c2[nH]1 [Example 155, 5-amino-N-({7-[(6-amino-9H-purin-9-yl)methyl]-5-chloro-1H-indol-2-yl}methyl)-3-methyl-1,2-oxazole-4-carboxamide] | 3.59
Cc1noc(C)c1C(=O)NCc1cc2cc(Cl)cc(Cn3cnc4c(N)ncnc43)c2[nH]1 [Example 162, N-({7-[(6-amino-9H-purin-9-yl)methyl]-5-chloro-1H-indol-2-yl}methyl)-3,5-dimethyl-1,2-oxazole-4-carboxamide] | 0.237
Cc1noc(C)c1C(=O)NCc1cc2cc(C3=CCCNC3)cc(Cn3cnc4c(N)ncnc43)c2[nH]1 [Example 163, N-({7-[(6-amino-9H-purin-9-yl)methyl]-5-(1,2,5,6-tetrahydropyridin-3-yl)-1H-indol-2-yl}methyl)-3,5-dimethyl-1,2-oxazole-4-carboxamide] | 0.127
Cc1noc(C)c1C(=O)NCc1cc2cc(-c3ccccc3)cc(Cn3cnc4c(N)ncnc43)c2[nH]1 [Example 164, N-({7-[(6-amino-9H-purin-9-yl)methyl]-5-phenyl-1H-indol-2-yl}methyl)-3,5-dimethyl-1,2-oxazole-4-carboxamide] | 0.139
Cc1noc(C)c1C(=O)NCc1cc2cc(-c3ccc(F)cc3)cc(Cn3cnc4c(N)ncnc43)c2[nH]1 [Example 165, N-({7-[(6-amino-9H-purin-9-yl)methyl]-5-(4-fluorophenyl)-1H-indol-2-yl}methyl)-3,5-dimethyl-1,2-oxazole-4-carboxamide] | 0.233
Cc1noc(C)c1C(=O)NCc1cc2cc(-c3ccc(S(N)(=O)=O)cc3)cc(Cn3cnc4c(N)ncnc43)c2[nH]1 [Example 166, N-({7-[(6-amino-9H-purin-9-yl)methyl]-5-(4-sulfamoylphenyl)-1H-indol-2-yl}methyl)-3,5-dimethyl-1,2-oxazole-4-carboxamide] | 0.0889
Cc1ccc(-c2cc(Cn3cnc4c(N)ncnc43)c3[nH]c(CNC(=O)c4c(C)noc4C)cc3c2)cc1 [Example 167, N-({7-[(6-amino-9H-purin-9-yl)methyl]-5-(4-methylphenyl)-1H-indol-2-yl}methyl)-3,5-dimethyl-1,2-oxazole-4-carboxamide] | 0.225
COc1ccc(-c2cc(Cn3cnc4c(N)ncnc43)c3[nH]c(CNC(=O)c4c(C)noc4C)cc3c2)cc1 [Example 168, N-({7-[(6-amino-9H-purin-9-yl)methyl]-5-(4-methoxyphenyl)-1H-indol-2-yl}methyl)-3,5-dimethyl-1,2-oxazole-4-carboxamide] | 0.333
COc1cccc(-c2cc(Cn3cnc4c(N)ncnc43)c3[nH]c(CNC(=O)c4c(C)noc4C)cc3c2)c1 [Example 169, N-({7-[(6-amino-9H-purin-9-yl)methyl]-5-(3-methoxyphenyl)-1H-indol-2-yl}methyl)-3,5-dimethyl-1,2-oxazole-4-carboxamide] | 0.0801
Cc1noc(C)c1C(=O)NCc1cc2cc(-c3ccc(S(C)(=O)=O)cc3)cc(Cn3cnc4c(N)ncnc43)c2[nH]1 [Example 170, N-({7-[(6-amino-9H-purin-9-yl)methyl]-5-[4-(methylsulfonyl)phenyl]-1H-indol-2-yl}methyl)-3,5-dimethyl-1,2-oxazole-4-carboxamide] | 0.208
Cc1noc(C)c1C(=O)NCc1cc2cc(-c3ccc(C#N)cc3)cc(Cn3cnc4c(N)ncnc43)c2[nH]1 [Example 171, N-({7-[(6-amino-9H-purin-9-yl)methyl]-5-(4-cyanophenyl)-1H-indol-2-yl}methyl)-3,5-dimethyl-1,2-oxazole-4-carboxamide] | 0.173
Cc1noc(C)c1C(=O)NCc1cc2cc(-c3cccc(C#N)c3)cc(Cn3cnc4c(N)ncnc43)c2[nH]1 [Example 172, N-({7-[(6-amino-9H-purin-9-yl)methyl]-5-(3-cyanophenyl)-H-indol-2-yl}methyl)-3,5-dimethyl-1,2-oxazole-4-carboxamide] | 0.0661
Cc1noc(C)c1C(=O)NCc1cc2cc(-c3cccc(C(N)=O)c3)cc(Cn3cnc4c(N)ncnc43)c2[nH]1 [Example 173, N-({7-[(6-amino-9H-purin-9-yl)methyl]-5-(3-carbamoylphenyl)-1H-indol-2-yl}methyl)-3,5-dimethyl-1,2-oxazole-4-carboxamide] | 0.0412

Reference: US9932340B2, “Substituted indoles” (AbbVie Inc., priority 2014, dated 2018)
